What was measured:
PI3K-alpha = PI3K-alpha (Homo sapiens, UniProt P42336); assay: PI3K-alpha fluorescence polarization assay; assay type: biochemical; conditions: 20 μM PIP2, 25 μM ATP; read-out: PI3Kα IC50
Method: The reaction buffer was 20 mM HEPES, pH 7.5, 2 mM MgCl2, 0.05% CHAPS; and 0.01% βME (added fresh). The stop/detection buffer was 100 mM HEPES, pH 7.5, 4 mM EDTA, 0.05% CHAPS; ATP 20 mM in water; PIP2 (diC8, Echelon, Salt Lake City Utah cat #P-4508) 1 mM in water (MW=856.5). The GST-GRP was 1.75 mg/mL or 1.4 mg/mL in 10% glycerol. The red detector (TAMRA) was 2.5 μM. Nunc 384-well black polypropylene fluorescent plates were used for PI3K assays.
The assay is run by placing 5 μL of diluted enzyme per well, then 5 μL of diluted compound (or 9.5 μL enzyme then 0.5 μL compound in DMSO) is added and mixed. Then, 10 μL substrate is added to start the reaction. The samples are incubated 30-60 minutes, then the reaction is stopped by adding 20 μL stop/detector mix. PI3K is diluted with reaction buffer (e.g., 5 μL or 7.5 μL PI3K into 620 μL reaction buffer), and 5 μL of diluted enzyme is used per well. A 5 μL portion of reaction buffer or of drug diluted in buffer (e.g., 4 μL/100 so final DMSO is 1% in reaction) is added to each. Pipetting up and down mixes the samples. Alternatively, the enzyme can be diluted to 1215 μL. In this case 9.8 μL is added per well and 0.2 μL compound is added in DMSO.
To prepare 1 mL of substrate solution, 955 μL reaction buffer, 40 μL PIP2, and 2.5 μL ATP are mixed. 10 μL of substrate is added to each well to start the reaction. […] The stop/detector mix is prepared by mixing 4 μL red detector and 1.6 μL or 2.0 μL GST-GRP with 1 mL stop buffer, which results in 10 nM probe and 70 nM GST-GRP. 20 μL of the stop/detector mix is added to each well to stop the reaction. The plates are read after 30-90 minutes keeping the red probe solutions dark. For the zero time point, stop/detector mix is added to the enzyme just before adding substrate. For an extra control, stop/detector mix is added to buffer (no enzyme) and substrate or to just buffer (no substrate). […] The recommended reaction has 0.06 μL per 20 μL (0.015 μg/20 μL) or 0.01125 μg/15 μL or 0.75 μg/mL.
Plates are read on machines with filters for TAMRA. The units are mP with no enzyme controls reading app 190-220 mP units. Fully active enzyme reduces fluorescence polarization down to 70-100 mP after 30 minutes. An active compound raises the mP values halfway to control or to 120-150 mP units.

LNCap = assay: In vitro cell growth assay (MTS), LNCap; assay type: cell-based; conditions: LNCaP, 72 h, human prostate line, three days after drug treatment
Method: (§1) The cell lines used were human prostate lines LNCap and PC3MM2, human breast lines MDA468 and MCF7, human renal line HTB44 (A498), human colon line HCT116, and human ovarian line OVCAR3. Cells were plated in 96-well culture plates. One day following plating, the inhibitors were added to cells. Three days after drug treatment, viable cell densities were determined by metabolic conversion (by viable cells) of the dye MTS, a well-established cell proliferation assay. The assays were performed using an assay kit purchased from Promega Corp. (Madison, Wis.) following the protocol supplied with the kit. The MTS assay results were read in a 96-well plate reader by measuring absorbance at 490 nm. The effect of each treatment was calculated as percent of control growth relative to the vehicle-treated cells grown in the same culture plate.

MDA468 = assay: In vitro cell growth assay (MTS), MDA468; assay type: cell-based; conditions: 72 h, human breast line MDA468, three days after drug treatment, read-out: MDA IC50
Method: as §1

mTOR = mTOR (Homo sapiens, UniProt P42345); assay: mTOR enzyme assay (DELFIA, purified FLAG-TOR, His6-S6K substrate); assay type: biochemical; parameters: FLAG; conditions: 100 μM ATP, 2 hours
mTOR, sequence (P42345 1360-2549 limits assumed): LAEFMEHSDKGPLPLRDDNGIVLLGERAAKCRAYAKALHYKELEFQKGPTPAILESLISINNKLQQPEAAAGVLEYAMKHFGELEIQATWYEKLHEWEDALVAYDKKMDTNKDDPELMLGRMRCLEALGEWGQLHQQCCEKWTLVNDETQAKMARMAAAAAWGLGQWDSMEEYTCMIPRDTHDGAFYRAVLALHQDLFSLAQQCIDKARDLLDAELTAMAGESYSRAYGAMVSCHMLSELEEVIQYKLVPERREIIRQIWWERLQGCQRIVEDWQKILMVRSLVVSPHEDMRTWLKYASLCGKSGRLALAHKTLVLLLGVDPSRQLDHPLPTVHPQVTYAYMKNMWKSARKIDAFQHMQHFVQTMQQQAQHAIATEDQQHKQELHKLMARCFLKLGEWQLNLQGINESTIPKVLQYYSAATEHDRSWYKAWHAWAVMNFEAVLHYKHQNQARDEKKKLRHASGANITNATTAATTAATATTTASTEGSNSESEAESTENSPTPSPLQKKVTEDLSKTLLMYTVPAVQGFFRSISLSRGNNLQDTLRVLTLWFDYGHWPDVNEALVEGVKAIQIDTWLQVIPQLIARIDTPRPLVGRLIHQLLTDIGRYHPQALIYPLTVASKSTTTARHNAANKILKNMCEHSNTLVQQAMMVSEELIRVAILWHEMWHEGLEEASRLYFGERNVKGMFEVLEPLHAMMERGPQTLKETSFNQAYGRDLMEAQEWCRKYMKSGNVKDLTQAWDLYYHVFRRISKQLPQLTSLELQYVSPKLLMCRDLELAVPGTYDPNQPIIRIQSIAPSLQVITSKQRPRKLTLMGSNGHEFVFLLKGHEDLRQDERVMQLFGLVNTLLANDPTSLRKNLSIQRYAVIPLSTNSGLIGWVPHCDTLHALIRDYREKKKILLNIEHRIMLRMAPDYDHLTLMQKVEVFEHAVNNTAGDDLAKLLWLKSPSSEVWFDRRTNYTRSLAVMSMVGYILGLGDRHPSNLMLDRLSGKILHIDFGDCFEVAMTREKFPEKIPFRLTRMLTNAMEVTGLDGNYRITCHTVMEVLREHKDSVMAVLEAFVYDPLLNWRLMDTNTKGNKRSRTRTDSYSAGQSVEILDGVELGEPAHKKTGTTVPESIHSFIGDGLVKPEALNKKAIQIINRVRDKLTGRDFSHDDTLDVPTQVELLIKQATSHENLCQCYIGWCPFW

PI3K-alpha, sequence (P42336 whole entry, species assumed): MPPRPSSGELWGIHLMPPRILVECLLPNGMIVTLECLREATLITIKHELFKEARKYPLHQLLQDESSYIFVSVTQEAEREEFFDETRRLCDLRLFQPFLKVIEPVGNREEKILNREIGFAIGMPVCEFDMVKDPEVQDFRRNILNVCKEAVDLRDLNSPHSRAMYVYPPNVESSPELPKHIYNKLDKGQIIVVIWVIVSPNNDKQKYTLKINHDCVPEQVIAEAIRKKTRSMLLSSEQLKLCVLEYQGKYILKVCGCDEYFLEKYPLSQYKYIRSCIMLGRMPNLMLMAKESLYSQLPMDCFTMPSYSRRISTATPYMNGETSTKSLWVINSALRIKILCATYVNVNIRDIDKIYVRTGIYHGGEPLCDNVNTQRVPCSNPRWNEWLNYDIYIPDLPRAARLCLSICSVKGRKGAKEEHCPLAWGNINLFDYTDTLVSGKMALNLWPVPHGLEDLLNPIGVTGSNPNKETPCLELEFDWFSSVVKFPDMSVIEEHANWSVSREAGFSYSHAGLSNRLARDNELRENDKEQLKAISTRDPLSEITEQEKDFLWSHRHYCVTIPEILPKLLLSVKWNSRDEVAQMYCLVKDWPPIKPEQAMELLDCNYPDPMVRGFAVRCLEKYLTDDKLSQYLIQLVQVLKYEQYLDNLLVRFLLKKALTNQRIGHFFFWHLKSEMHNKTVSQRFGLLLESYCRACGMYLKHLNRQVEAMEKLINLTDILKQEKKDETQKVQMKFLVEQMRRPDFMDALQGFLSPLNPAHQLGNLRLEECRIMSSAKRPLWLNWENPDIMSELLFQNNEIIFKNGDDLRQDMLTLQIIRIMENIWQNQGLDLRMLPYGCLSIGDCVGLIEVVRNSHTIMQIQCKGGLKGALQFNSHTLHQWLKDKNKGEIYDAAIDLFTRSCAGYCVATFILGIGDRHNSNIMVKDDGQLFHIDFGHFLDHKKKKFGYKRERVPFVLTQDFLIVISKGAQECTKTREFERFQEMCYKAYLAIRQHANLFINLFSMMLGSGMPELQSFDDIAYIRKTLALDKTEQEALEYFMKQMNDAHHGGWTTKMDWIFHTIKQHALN
PI3K-alpha, sequence (P27986 whole entry partner, species assumed): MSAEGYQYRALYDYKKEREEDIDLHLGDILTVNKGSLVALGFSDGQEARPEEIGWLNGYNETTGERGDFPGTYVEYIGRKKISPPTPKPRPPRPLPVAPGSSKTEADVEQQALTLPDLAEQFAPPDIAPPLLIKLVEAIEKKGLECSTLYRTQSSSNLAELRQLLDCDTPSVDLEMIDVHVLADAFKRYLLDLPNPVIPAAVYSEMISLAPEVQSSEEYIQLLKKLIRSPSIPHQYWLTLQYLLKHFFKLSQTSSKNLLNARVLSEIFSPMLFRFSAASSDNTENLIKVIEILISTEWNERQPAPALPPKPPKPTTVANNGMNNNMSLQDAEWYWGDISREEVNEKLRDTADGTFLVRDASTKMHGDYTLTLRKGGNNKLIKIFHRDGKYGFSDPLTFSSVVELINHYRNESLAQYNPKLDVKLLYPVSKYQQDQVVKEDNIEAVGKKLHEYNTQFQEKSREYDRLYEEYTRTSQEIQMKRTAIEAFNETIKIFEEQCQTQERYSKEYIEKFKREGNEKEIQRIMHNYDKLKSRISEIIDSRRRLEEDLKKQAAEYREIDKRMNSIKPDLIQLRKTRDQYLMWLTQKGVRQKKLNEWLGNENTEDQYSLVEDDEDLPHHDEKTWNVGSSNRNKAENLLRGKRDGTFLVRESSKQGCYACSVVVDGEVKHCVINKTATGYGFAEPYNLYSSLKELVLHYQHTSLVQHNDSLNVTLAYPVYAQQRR

Structure (SMILES)	IC50 (PI3K-alpha) [nM]	IC50 (LNCap) [nM]	IC50 (MDA468) [nM]	IC50 (mTOR) [nM]
CC(C)Oc1cc(N2CC3CCC(C2)O3)nc(-c2ccc(NC(=O)Nc3ccncc3)cc2)n1 [1-{4-[4-(1-methylethoxy)-6-(8-oxa-3-azabicyclo[3.2.1]oct-3-yl)pyrimidin-2-yl]phenyl}-3-pyridin-4-ylurea]	264	23	180	1.35
O=C(Nc1ccncc1)Nc1ccc(-c2nc(N3CC4CCC(C3)O4)cc(C(F)(F)F)n2)cc1 [1-{4-[4-(8-oxa-3-azabicyclo[3.2.1]oct-3-yl)-6-(trifluoromethyl)pyrimidin-2-yl]phenyl}-3-pyridin-4-ylurea]	280	50	250	2.45
O=C(Nc1ccncc1)Nc1ccc(-c2nc(-c3ccccc3)cc(N3CC4CCC(C3)O4)n2)cc1 [1-{4-[4-(8-oxa-3-azabicyclo[3.2.1]oct-3-yl)-6-phenylpyrimidin-2-yl]phenyl}-3-pyridin-4-ylurea]	229	290	390	5.6
O=C(Nc1ccncc1)Nc1ccc(-c2nccc(N3CC4CCC(C3)O4)n2)cc1 [1-{4-[4-(8-oxa-3-azabicyclo[3.2.1]oct-3-yl)pyrimidin-2-yl]phenyl}-3-pyridin-4-ylurea]	224	180	650	14.5
CC(C)Nc1cc(N2C3CCC2COC3)nc(-c2ccc(NC(=O)Nc3ccc(N4CCN(C)CC4)cc3)cc2)n1 [1-{4-[4-(isopropylamino)-6-(3-oxa-8-azabicyclo[3.2.1]oct-8-yl)pyrimidin-2-yl]phenyl}-3-[4-(4-methylpiperazin-1-yl)phenyl]urea]	2000	19	34	2.7
CC(C)Nc1cc(N2C3CCC2COC3)nc(-c2ccc(NC(=O)Nc3ccc(N4CCN(C)CC4)nc3)cc2)n1 [1-{4-[4-(isopropylamino)-6-(3-oxa-8-azabicyclo[3.2.1]oct-8-yl)pyrimidin-2-yl]phenyl}-3-[6-(4-methylpiperazin-1-yl)pyridin-3-yl]urea]	3870	90	100	4.2
CC(C)Nc1cc(N2C3CCC2COC3)nc(-c2ccc(NC(=O)Nc3ccncc3)cc2)n1 [1-{4-[4-(isopropylamino)-6-(3-oxa-8-azabicyclo[3.2.1]oct-8-yl)pyrimidin-2-yl]phenyl}-3-pyridin-4-ylurea]	2500	13	29	1.4
CC(C)Nc1cc(N2C3CCC2COC3)nc(-c2ccc(NC(=O)Nc3ccc(CN4CCN(C)CC4)cc3)cc2)n1 [1-{4-[4-(isopropylamino)-6-(3-oxa-8-azabicyclo[3.2.1]oct-8-yl)pyrimidin-2-yl]phenyl}-3-{4-[(4-methylpiperazin-1-yl)methyl]phenyl}urea]	3410	70	110	3.2
CN1CCN(Cc2ccc(NC(=O)Nc3ccc(-c4nc(CS(C)(=O)=O)cc(N5CC6CCC(C5)O6)n4)cc3)cc2)CC1 [1-{4-[(4-methylpiperazin-1-yl)methyl]phenyl}-3-(4-{4-[(methylsulfonyl)methyl]-6-(8-oxa-3-azabicyclo[3.2.1]oct-3-yl)pyrimidin-2-yl}phenyl)urea]	520	80	140	4.05
CNCc1ccc(NC(=O)Nc2ccc(-c3nc(CS(C)(=O)=O)cc(N4CC5CCC(C4)O5)n3)cc2)cc1 [1-{4-[(methylamino)methyl]phenyl}-3-(4-{4-[(methylsulfonyl)methyl]-6-(8-oxa-3-azabicyclo[3.2.1]oct-3-yl)pyrimidin-2-yl}phenyl)urea]	63.5	1100	1560	4.15
O=C(Nc1ccc(-c2nc(N3CC4CCC(C3)O4)cc(C(F)(F)F)n2)cc1)OCCO [2-hydroxyethyl {4-[4-(8-oxa-3-azabicyclo[3.2.1]oct-3-yl)-6-(trifluoromethyl)pyrimidin-2-yl]phenyl}carbamate]	5160	950	4000	15.5
